Patent US9458137B2, “Substituted indol-5-ol derivatives and their therapeutical applications” (NantBioScience, Inc., priority 2012, dated 2016)

What was measured:
Experiment in all cases: Kinase panel activity
Format in all cases: biochemical
Details in all cases: 0.1 μM, ATP Km
ARK5(h) = ARK5(h) (Homo sapiens, UniProt O60285)
Method: (§1) The effect of NTW-3475 on kinase activity was tested for a wide range of kinases and is shown in Table 2: Summary Sheet, Activity % ATP Concentration: Km

1tk(h) = 1tk(h) (Homo sapiens, UniProt Q08881)
Sequence of 1tk(h) (Q08881 whole entry): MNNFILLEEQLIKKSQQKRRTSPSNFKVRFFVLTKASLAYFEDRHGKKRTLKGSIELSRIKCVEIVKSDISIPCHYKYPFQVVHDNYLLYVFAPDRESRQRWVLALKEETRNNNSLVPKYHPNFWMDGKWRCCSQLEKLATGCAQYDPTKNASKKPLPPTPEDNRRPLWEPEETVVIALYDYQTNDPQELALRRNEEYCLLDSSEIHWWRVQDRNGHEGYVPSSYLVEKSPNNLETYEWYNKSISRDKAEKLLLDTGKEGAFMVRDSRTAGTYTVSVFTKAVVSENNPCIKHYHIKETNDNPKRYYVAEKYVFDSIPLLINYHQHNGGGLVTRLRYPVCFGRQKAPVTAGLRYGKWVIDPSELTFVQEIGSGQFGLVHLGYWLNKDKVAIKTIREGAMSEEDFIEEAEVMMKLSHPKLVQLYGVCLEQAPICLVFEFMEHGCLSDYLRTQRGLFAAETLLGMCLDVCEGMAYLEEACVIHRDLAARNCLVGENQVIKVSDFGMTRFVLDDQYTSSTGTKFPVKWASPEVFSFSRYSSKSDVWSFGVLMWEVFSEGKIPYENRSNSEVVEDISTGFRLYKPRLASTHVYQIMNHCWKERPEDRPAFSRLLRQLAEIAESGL
Method: as §1

DRAK1(h) = target: T1, DRAK1(h) (Homo sapiens, UniProt Q9UEE5)
T1 construct: purchased Millipore (KinaseProfiler service)
T1 sequence (Q9UEE5 whole entry): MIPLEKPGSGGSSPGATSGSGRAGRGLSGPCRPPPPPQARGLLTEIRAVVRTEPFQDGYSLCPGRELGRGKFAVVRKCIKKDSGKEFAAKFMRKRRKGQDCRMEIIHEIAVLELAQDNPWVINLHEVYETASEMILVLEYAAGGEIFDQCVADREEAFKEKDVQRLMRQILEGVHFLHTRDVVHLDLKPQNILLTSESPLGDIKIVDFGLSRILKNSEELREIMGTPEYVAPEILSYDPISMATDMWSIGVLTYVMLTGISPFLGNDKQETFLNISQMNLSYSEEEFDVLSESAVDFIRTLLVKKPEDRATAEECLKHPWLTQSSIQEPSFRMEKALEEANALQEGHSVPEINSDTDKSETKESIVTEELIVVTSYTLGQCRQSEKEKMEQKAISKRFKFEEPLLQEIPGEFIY
Method: as §1

SRPK2(h) = target: T2, SRPK2(h) (Homo sapiens, UniProt P78362)
T2 construct: purchased Millipore (KinaseProfiler service)
T2 sequence (P78362 whole entry): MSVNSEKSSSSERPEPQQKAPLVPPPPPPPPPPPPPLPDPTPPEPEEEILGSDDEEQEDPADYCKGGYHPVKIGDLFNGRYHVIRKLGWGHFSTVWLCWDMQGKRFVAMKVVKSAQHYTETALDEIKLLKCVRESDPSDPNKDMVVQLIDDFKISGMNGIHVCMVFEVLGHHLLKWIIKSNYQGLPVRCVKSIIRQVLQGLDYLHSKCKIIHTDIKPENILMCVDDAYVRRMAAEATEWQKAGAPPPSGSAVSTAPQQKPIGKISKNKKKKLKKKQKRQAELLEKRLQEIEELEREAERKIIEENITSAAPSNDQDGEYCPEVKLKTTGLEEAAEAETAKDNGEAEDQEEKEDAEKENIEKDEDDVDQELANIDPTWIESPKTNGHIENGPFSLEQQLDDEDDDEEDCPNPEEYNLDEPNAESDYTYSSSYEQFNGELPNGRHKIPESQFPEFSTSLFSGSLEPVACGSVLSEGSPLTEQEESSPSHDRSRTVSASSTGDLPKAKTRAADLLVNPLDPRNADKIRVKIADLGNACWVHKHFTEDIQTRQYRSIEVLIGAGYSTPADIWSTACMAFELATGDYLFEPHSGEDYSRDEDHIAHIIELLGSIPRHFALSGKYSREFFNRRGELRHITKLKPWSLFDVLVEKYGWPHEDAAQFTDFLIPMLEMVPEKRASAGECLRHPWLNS
Method: as §1

Sequence of ARK5(h) (O60285 whole entry): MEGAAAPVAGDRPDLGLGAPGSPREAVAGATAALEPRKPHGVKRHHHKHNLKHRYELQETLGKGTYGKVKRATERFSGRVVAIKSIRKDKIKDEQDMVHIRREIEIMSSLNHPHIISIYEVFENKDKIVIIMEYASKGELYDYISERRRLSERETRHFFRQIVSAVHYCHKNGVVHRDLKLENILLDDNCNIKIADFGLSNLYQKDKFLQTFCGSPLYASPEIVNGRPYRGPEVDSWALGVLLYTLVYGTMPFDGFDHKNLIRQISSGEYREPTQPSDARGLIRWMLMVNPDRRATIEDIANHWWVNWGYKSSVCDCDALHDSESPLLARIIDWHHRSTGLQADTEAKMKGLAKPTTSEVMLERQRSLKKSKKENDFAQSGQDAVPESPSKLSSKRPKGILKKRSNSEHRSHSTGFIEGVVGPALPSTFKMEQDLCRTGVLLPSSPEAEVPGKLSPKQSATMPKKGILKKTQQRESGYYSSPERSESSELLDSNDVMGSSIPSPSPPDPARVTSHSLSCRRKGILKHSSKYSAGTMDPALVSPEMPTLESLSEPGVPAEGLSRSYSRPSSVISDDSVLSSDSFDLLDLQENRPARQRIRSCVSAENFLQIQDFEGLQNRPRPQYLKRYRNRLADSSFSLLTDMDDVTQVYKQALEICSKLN

Activity % (ARK5(h)): 2%
Activity % (1tk(h)): 29%
Activity % (DRAK1(h)): 51%
Activity % (SRPK2(h)): 99%
SMILES: Cc1cc2c(F)c(Oc3nc(Nc4cc(C5CC5)[nH]n4)cc(N4CCN(C)CC4)n3)cc(F)c2[nH]1 [NTW-3475]
